We go through 18 compounds from patent US9062041B2 (Bayer Intellectual Property GmbH, priority 2011, dated 2015).

Type in all cases: cell-based
In one test the target is T1, human PGD receptor (Homo sapiens, UniProt Q13258).
T1 sequence (Q13258 1-359): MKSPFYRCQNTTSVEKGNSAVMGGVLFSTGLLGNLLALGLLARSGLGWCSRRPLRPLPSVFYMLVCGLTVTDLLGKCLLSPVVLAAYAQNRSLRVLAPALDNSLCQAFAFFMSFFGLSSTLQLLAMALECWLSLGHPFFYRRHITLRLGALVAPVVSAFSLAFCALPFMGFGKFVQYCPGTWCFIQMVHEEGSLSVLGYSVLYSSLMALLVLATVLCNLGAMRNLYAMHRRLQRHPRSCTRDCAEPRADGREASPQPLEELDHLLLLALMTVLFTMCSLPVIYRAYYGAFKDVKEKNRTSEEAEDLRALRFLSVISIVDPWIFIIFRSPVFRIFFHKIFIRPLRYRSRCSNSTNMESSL
As to the kind of experiment: cAMP antagonism test on the human prostaglandin D receptor (HTRF cAMP detection). Particulars: selectivity towards hDP, IC50 measured by cAMP antagonism test. The method in brief:
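HTRF competition read-out (665/620 nm ratio ×10000), where higher FRET means less cAMP, i.e. antagonism. Compounds (0.8 nM–16.5 μM) were preincubated 20 min at RT with cells and cAMP-d2, PGD2 (3× solution, 6 nM) in IBMX-containing PBS added for 30 min at RT, then cells lysed 20 min.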
(In general: Time-resolved FRET reads energy transfer from a long-lived donor to a nearby acceptor.)

Test [1] deals with EP2 subtype of the human PGE2 receptor (Homo sapiens, UniProt P43116). As to the kind of experiment: cAMP antagonism test on the human EP2 receptor (HTRF cAMP detection). Particulars: hEP2 receptor, read-out: Antagonism hEP2 IC50. Summed up: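 Read-out is a competitive HTRF for cAMP: lysate cAMP displaces cAMP-d2 from Eu cryptate-labelled antibody, and antagonism raises the 665/620 nm ratio. Compound (0.8 nM–16.5 μM) added to EP2 cells 20 min at RT before 60 min PGE2 challenge (3× stock 1.5 nM) with IBMX, followed by 20 min lysis.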
EP2 subtype of the human PGE2 receptor, sequence (P43116 whole entry): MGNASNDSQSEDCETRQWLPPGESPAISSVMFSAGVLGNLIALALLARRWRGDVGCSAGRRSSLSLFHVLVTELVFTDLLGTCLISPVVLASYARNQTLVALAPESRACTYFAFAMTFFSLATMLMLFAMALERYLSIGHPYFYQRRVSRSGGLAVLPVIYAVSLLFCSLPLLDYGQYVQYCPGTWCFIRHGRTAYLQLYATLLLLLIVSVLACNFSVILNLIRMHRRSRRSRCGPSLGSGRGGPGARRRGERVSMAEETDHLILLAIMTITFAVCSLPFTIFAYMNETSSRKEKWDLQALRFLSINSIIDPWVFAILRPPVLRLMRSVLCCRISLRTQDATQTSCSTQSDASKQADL

Test [2] has as its target EP4 subtype of the human PGE2 receptor (Homo sapiens, UniProt P35408). As to the kind of experiment: cAMP antagonism test on the human EP4 receptor (HTRF cAMP detection). The note with it: selectivity towards hEP4, IC50 measured by cAMP antagonism test. Summed up:
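Competitive HTRF cAMP read-out (cAMP-d2 vs Eu-cryptate anti-cAMP antibody, 665/620 nm ratio) on lysed human EP4 cells. Compound (0.8 nM–16.5 μM) applied 20 min at RT before 60 min PGE2 challenge (3× solution 0.3 nM, IBMX present); 20 min lysis precedes reading.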

EP4 subtype of the human PGE2 receptor, sequence (P35408 whole entry): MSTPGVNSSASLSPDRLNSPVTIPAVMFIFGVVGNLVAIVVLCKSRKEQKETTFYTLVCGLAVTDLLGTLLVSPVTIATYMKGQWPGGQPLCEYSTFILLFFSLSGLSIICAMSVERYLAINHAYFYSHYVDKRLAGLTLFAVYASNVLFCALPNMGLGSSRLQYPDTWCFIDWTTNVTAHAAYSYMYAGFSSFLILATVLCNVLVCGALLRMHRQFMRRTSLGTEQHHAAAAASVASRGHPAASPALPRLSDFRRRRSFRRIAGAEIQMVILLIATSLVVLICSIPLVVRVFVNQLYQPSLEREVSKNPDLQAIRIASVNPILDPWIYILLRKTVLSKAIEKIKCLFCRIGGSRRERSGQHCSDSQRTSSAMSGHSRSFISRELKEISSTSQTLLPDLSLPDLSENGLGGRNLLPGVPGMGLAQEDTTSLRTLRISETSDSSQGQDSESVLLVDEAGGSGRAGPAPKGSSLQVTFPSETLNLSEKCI

Take `Cc1c(C(=O)NCC(C)OCC2CC2)ccc2nn(CC3CCN(C(=O)c4ccc(Oc5ccc(F)cc5)cc4)CC3)cc12` (racemic) [Example 103, (+/−)-N-[2-(cyclo-propylmethoxy)-propyl]-2-({1-[4-(4-fluorophenoxy)-benzoyl]piperidin-4-yl}-methyl)-4-methyl-2H-indazol-5-carboxamide]: the “Selectivity hEP2/hDP” value at human PGD receptor is given as “xx (xx: 10-100)”. The IC50 in test [1] was 595 nM. The “Selectivity hEP2/hEP4” value in test [2] is reported as “xx (xx: 10-100)”.

As for `COCCNC(=O)c1cc2cn(CC3CN(C(=O)c4ccc(Oc5ccc(C(F)(F)F)cc5)cc4)C3)nc2cc1C` [Example 202, N-(2-methoxyethyl)-6-methyl-2-[(1-{4-[4-(trifluoromethyl)phenoxy]benzoyl}-azetidin-3-yl)methyl]-2H-indazol-5-carboxamide], the “Selectivity hEP2/hDP” value on human PGD receptor is given as “xxx (xxx > 100)”. The IC50 in test [1] was determined as 5.06 nM. The “Selectivity hEP2/hEP4” value in test [2] was “xxx (xxx > 100)”.

For the compound `Cc1c(C(=O)NCCOC(C)(C)C)ccc2nn(CC3CCN(C(=O)c4ccc(Oc5ccc(C(F)(F)F)cc5)cc4)CC3)cc12` [Example 114, N-(2-tert-butoxyethyl)-4-methyl-2-[(1-{4-[4-(trifluoromethyl)-phenoxy]benzoyl}-piperidin-4-yl)methyl]-2H-indazol-5-carboxamide], the “Selectivity hEP2/hDP” value at human PGD receptor was “xxx (xxx > 100)”. Moreover, the half-inhibitory concentration (IC50) in test [1] amounted to 6.08 nM. The “Selectivity hEP2/hEP4” value in test [2] is “xxx (xxx > 100)”.

On to `COc1c(C(=O)NCCSC(F)(F)F)ccc2nn(CC3CCN(C(=O)c4ccc(Cl)cc4)CC3)cc12` [Example 265, 2-{[1-(4-chlorobenzoyl)piperidin-4-yl]methyl}-4-methoxy-N-{2-[(trifluoromethyl)sulphanyl]ethyl}-2H-indazol-5-carboxamide], for which the “Selectivity hEP2/hDP” value at human PGD receptor was “xxx (xxx > 100)”. For the same compound, the IC50 in test [1] is 31.5 nM. Besides, in test [2], the “Selectivity hEP2/hEP4” value is listed as “xxx (xxx > 100)”.

For the compound `COCCNC(=O)c1ccc2nn(CC3CCN(C(=O)c4ccc(S(=O)(=O)C(F)(F)F)cc4)CC3)cc2c1C` [Example 25, N-(2-methoxyethyl)-4-methyl-2-[(1-{4-[(trifluoromethyl)-sulphonyl]benzoyl}-piperidin-4-yl)-methyl]-2H-indazol-5-carboxamide], the “Selectivity hEP2/hDP” value on human PGD receptor was “xxx (xxx > 100)”. Further, the IC50 in test [1] came to 25.2 nM. Also, the “Selectivity hEP2/hEP4” value in test [2] is on record as “xxx (xxx > 100)”.

Consider `COCCNC(=O)c1ccc2nn(CC3CCN(C(=O)c4ccc(-c5ccc(Cl)cc5C)cc4)CC3)cc2c1C` [Example 371, 2-({1-[(4′-chloro-2′-methylbiphenyl-4-yl)carbonyl]piperidin-4-yl}methyl)-N-(2-methoxyethyl)-4-methyl-2H-indazol-5-carboxamide], for which the “Selectivity hEP2/hDP” value on human PGD receptor is reported as “xxx (xxx > 100)”. The concentration for half-maximal inhibition (IC50) in test [1] turned out to be 6.11 nM. For the same compound, in test [2], the “Selectivity hEP2/hEP4” value is “xxx (xxx > 100)”.

For `COCCNC(=O)c1ccc2nn(CC3CCN(C(=O)c4ccc(Oc5ccc(C)cc5)cc4)CC3)cc2c1C` [Example 15, N-(2-methoxyethyl)-4-methyl-2-({1-[4-(4-methylphenoxy)-benzoyl]piperidin-4-yl}methyl)-2H-indazol-5-carboxamide], at human PGD receptor, the “Selectivity hEP2/hDP” value is given as “xxx (xxx > 100)”. In test [1], the concentration for half-maximal inhibition (IC50) stood at 4.17 nM. The “Selectivity hEP2/hEP4” value in test [2] is given as “xxx (xxx > 100)”.

For `O=C(NCCOCC1CC1)c1ccc2nn(CC3CCN(C(=O)c4ccc(Oc5ccc(F)cc5)cc4)CC3)cc2c1OC(F)F` [Example 230, N-[2-(cyclopropylmethoxy)ethyl]-4-(difluoromethoxy)-2-({1-[4-(4-fluoro-phenoxy)benzoyl]piperidin-4-yl}methyl)-2H-indazol-5-carboxamide], the “Selectivity hEP2/hDP” value at human PGD receptor is “xxx (xxx > 100)”. Besides, the IC50 in test [1] is 13.7 nM. For the same compound, the “Selectivity hEP2/hEP4” value in test [2] is given as “xxx (xxx > 100)”.

Regarding `Cc1c(C(=O)NCC(F)(F)F)ccc2nn(CC3CCN(C(=O)c4ccc(Br)cc4)CC3)cc12` [Example 316, 2-{[1-(4-bromobenzoyl)piperidin-4-yl]methyl}-4-methyl-N-(2,2,2-trifluoro-ethyl)-2H-indazol-5-carboxamide], the “Selectivity hEP2/hDP” value on human PGD receptor is given as “xxx (xxx > 100)”. In test [1], the concentration for half-maximal inhibition (IC50) was determined as 79 nM. The “Selectivity hEP2/hEP4” value in test [2] was “xxx (xxx > 100)”.

Regarding `Cc1c(C(=O)NCC2CCCCO2)ccc2nn(CC3CN(C(=O)c4ccc(Cl)cc4)C3)cc12` (single isomer, unassigned) [Example 146, (S or R)-2-{[1-(4-chlorobenzoyl)azetidin-3-yl]methyl}-4-methyl-N-(3,4,5,6-tetrahydro-2H-pyran-2-ylmethyl)-2H-indazol-5-carboxamide], the “Selectivity hEP2/hDP” value on human PGD receptor is listed as “xxx (xxx > 100)”. In test [1], the IC50 worked out at 52.6 nM. In test [2], the “Selectivity hEP2/hEP4” value is reported as “xxx (xxx > 100)”.

With `Cc1c(C(=O)NCC2COCCO2)ccc2nn(CC3CCN(C(=O)c4ccc(Oc5ccc(C(F)(F)F)cc5)cc4)CC3)cc12` (single isomer, unassigned) [Example 418, (R or S)—N-(1,4-dioxan-2-ylmethyl)-4-methyl-2-[(1-{4-[4-(trifluoromethyl)-phenoxy]benzoyl}piperidin-4-yl)methyl]-2H-indazol-5-carboxamide], the “Selectivity hEP2/hDP” value on human PGD receptor is on record as “xxx (xxx > 100)”. For the same compound, the IC50 in test [1] is 15.8 nM. Further, the “Selectivity hEP2/hEP4” value in test [2] is given as “xxx (xxx > 100)”.

Turning to `Cc1c(C(=O)NCC(F)(F)F)ccc2nn(CC3CN(C(=O)c4ccc(OC(F)(F)F)cc4)C3)cc12` [Example 130, 4-methyl-N-(2,2,2-trifluoroethyl)-2-({1-[4-(trifluoromethoxy)benzoyl]azetidin-3-yl}methyl)-2H-indazol-5-carboxamide], the “Selectivity hEP2/hDP” value on human PGD receptor is given as “xx (xx: 10-100)”. The 50% inhibitory concentration (IC50) in test [1] amounted to 241 nM. In addition, the “Selectivity hEP2/hEP4” value in test [2] is “xx (xx: 10-100)”.

As to `COCCNC(=O)c1ccc2nn(CC3CCN(C(=O)c4cnc(-c5ccccc5)o4)CC3)cc2c1C` [Example 339, N-(2-methoxyethyl)-4-methyl-2-({1-[(2-phenyloxazol-5-yl)carbonyl]piperidin-4-yl}methyl)-2H-indazol-5-carboxamide], the “Selectivity hEP2/hDP” value on human PGD receptor was “xxx (xxx > 100)”. Also, the IC50 in test [1] amounted to 7.15 nM. Besides, in test [2], the “Selectivity hEP2/hEP4” value is on record as “xxx (xxx > 100)”.

For the compound `Cc1c(C(=O)NCCS(C)(=O)=O)ccc2nn(CC3CCN(C(=O)c4ccc(Oc5ccc(C(F)(F)F)cc5)cc4)CC3)cc12` [Example 245, N-(2-mesylethyl)-4-methyl-2-[(1-{4-[4-(trifluoromethyl)phenoxy]benzoyl}-piperidin-4-yl)methyl]-2H-indazol-5-carboxamide], the “Selectivity hEP2/hDP” value at human PGD receptor is “xxx (xxx > 100)”. Further, the IC50 in test [1] came out at 7.79 nM. Also, in test [2], the “Selectivity hEP2/hEP4” value was “xxx (xxx > 100)”.

In the case of `Cc1c(C(=O)NCCOC(F)(F)F)ccc2nn(CC3CN(C(=O)c4ccc(Cl)cc4)C3)cc12` [Example 152, 2-{[1-(4-chlorobenzoyl)azetidin-3-yl]methyl}-4-methyl-N-[2-(trifluoromethoxy)ethyl]-2H-indazol-5-carboxamide], at human PGD receptor, the “Selectivity hEP2/hDP” value is “xxx (xxx > 100)”. Moreover, the IC50 in test [1] came out at 33.3 nM. Besides, the “Selectivity hEP2/hEP4” value in test [2] is on record as “xxx (xxx > 100)”.

As for `Cc1c(C(=O)NCCOC(C)C)ccc2nn(CC3CCN(C(=O)c4ccc(C(F)(F)F)cc4)CC3)cc12` [Example 99, N-(2-isopropoxy-ethyl)-4-methyl-2-({1-[4-(trifluoro-methyl)benzoyl]-piperidin-4-yl}-methyl)-2H-indazol-5-carboxamide], the “Selectivity hEP2/hDP” value on human PGD receptor was “xxx (xxx > 100)”. In test [1], the concentration for half-maximal inhibition (IC50) was 10.4 nM. Besides, the “Selectivity hEP2/hEP4” value in test [2] was “xxx (xxx > 100)”.

With `COCCNC(=O)c1ccc2nn(CC3CN(C(=O)c4cc5cc(F)ccc5n4C)C3)cc2c1C` [Example 170, 2-({1-[(5-fluoro-1-methyl-1H-indol-2-yl)carbonyl]azetidin-3-yl}methyl)-N-(2-methoxyethyl)-4-methyl-2H-indazol-5-carboxamide], on human PGD receptor, the “Selectivity hEP2/hDP” value is “xxx (xxx > 100)”. Further, the IC50 in test [1] came to 4.25 nM. Further, the “Selectivity hEP2/hEP4” value in test [2] is “xxx (xxx > 100)”.

Regarding `Cc1c(C(=O)NCCN2CCOCC2)ccc2nn(CC3CCN(C(=O)c4ccc(Oc5ccc(F)cc5)cc4)CC3)cc12` [Example 67, 2-({1-[4-(4-fluoro-phenoxy)benzoyl]-piperidin-4-yl}-methyl)-4-methyl-N-(2-morpholinoethyl)-2H-indazol-5-carboxamide], at human PGD receptor, the “Selectivity hEP2/hDP” value is given as “xx (xx: 10-100)”. In addition, in test [1], the IC50 was 405 nM. Besides, the “Selectivity hEP2/hEP4” value in test [2] is reported as “xx (xx: 10-100)”.

As a reminder, the IC50 is the concentration that gives 50% inhibition.
